Reference: article PMC9964651, “Discovery of Ureido-Based Apcin Analogues as Cdc20-specific Inhibitors against Cancer” (Pharmaceuticals, 2023)
Like-named read-outs stand apart in the source and are kept apart here.

Assays:
Hela [1] = assay: In vitro antiproliferative assay (CCK-8); format: cell-based, human; conditions: Homo sapiens, HeLa; CCK-8, 48 h, mean ± SD
Description: The experiment was repeated three times.

Hela [2] = system: Hela; set-up: method as in PMID 32290657; conditions: previous studies; read-out: IC50 ± SD Hela; cited from earlier work
tubulin [3] = system: tubulin; set-up: method as in PMID 32290657; conditions: previous research of the authors; cited from earlier work
Mda-mb-231 = assay: In vitro antiproliferative assay (CCK-8); conditions: Homo sapiens, MDA-MB-231, 48 h, read-out: IC50 ± SD Mda-mb-231
Experimental: (§1) Hela and MDA-MB-132 cells were grown in DMEM (Gibco) containing 10% FBS and 1% double antibody (penicillin 100 U/mL, streptomycin 100 μg/mL, Solarbio). […] All cell lines were purchased from the Xiangya Cell Bank, Central South University, Changsha, China, and incubated at 37 °C with 5% CO2 in a humidified atmosphere. […] Cytotoxicity assay was assessed using CCK-8 methods. The cells were seeded in a 96-well plate (2 × 10^3–3 × 10^3 cells/well), the 96-well plate was incubated at 37 °C with 5% CO2 in a humidified atmosphere, and the cells were grown in a monolayer; the original culture was discarded. A total of 100 μL of drug-containing medium with a specific concentration gradient was added and then cultivated for 48 h; 10 μL/well of CCK-8 solution was added, put in an incubator, and incubated for 1 h and read with a multi-function microplate reader at a wavelength of 450 nm. The inhibition rate was calculated, and the IC50 results were calculated by GraphPad Prism 7 software. The experiment was repeated three times.

Hepg2 [4] = assay: In vitro antiproliferative assay (CCK-8); conditions: Homo sapiens, HepG2, 48 h, read-out: IC50 ± SD Hepg2
Experimental: as §1

Mcf-7 [5] = assay: In vitro antiproliferative assay (CCK-8); conditions: Homo sapiens, MCF7, 48 h, read-out: IC50 ± SD Mcf-7
Experimental: as §1

[6] = target: recombinant human Cdc20 protein (Homo sapiens, UniProt Q12834); assay: Surface plasmon resonance (SPR) assay; format: binding; conditions: for Kd: dissociation-equilibrium constant; for Kd / Kd (1/S): one-to-one model; for Kd (1/S): dissociation-rate constant
recombinant human Cdc20 protein, sequence (Q12834 whole entry): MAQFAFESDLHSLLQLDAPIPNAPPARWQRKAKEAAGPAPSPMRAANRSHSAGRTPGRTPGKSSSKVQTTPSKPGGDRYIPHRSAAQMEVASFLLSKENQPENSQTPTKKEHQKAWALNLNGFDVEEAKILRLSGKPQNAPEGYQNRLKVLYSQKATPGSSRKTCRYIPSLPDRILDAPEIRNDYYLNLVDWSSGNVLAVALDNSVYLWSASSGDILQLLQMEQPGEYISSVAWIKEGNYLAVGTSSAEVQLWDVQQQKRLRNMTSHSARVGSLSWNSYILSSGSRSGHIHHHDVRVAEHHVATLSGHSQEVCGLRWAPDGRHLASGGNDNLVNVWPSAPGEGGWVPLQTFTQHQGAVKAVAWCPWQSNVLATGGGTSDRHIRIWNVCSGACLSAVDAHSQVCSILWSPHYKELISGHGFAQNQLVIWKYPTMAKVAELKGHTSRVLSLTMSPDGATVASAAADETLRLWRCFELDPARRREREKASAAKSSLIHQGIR
Experimental: Surface plasmon resonance (SPR) analysis can measure the interaction process between various biomolecules, such as polypeptides, proteins, oligonucleotides, and oligosaccharides, as well as viruses, bacteria, cells, and small molecular compounds. First, we installed the COOH chip according to the standard operating procedure of the OpenSPRTM instrument and started running it at the maximum flow rate (150 μL/min). The detection buffer was PBS, and after reaching the signal baseline, 200 μL of isopropanol were loaded and the air was removed by running for 10 s. After reaching baseline, the sample loop was flushed with buffer and evacuated with air, and after the signal reached baseline, the buffer flow rate was adjusted to 20 μL/min. A total of 200 μL of EDC/NHS (1:1) solution (20 μL/min, 4 min), 200 μL EDC/NHS (1:1) solution (20 μL/min, 4 min), and 200 μL recombinant human Cdc20 protein buffer was loaded and run for 4 min (20 μL/min), and the sample loop was rinsed with buffer and drained with null air. A total of 200 μL of blocking solution was loaded (20 μL/min, 4 min), and the sample loop was flushed with buffer and evacuated with air. After the baseline was stable, the analyte was diluted with buffer and loaded at 20 μL/min. The binding time of the analyte and the ligand was 240 s, and the natural dissociation time was 480 s. The analysis software used for the experimental results was TraceDrawer (Ridgeview Instruments ab, Sweden), and the analysis method was the one-to-one analysis model.
Molecules were tested in a dilution series starting at 500 μM. The analyte was diluted with buffer and loaded at 20 μL/min. The binding time of the analyte and the ligand was 240 s, and the natural dissociation time was 480 s. The analysis software used for the experimental results was TraceDrawer (Ridgeview Instruments AB, Sweden), and the analysis method was the one-to-one analysis model.

[7] = system: Cdc20 and downstream substrates (cyclin B1, securin, Bim, cleaved PARP) in Hela cells; assay: Western blot of Cdc20 and Cdc20 downstream proteins; format: cell-based, human; conditions: for Cdc20 protein level: 12 h after addition
Experimental: The lysate for extracting cellular proteins was prepared with bromophenol blue (0.02%), dithiothreitol (DTT; 0.5M), glycerol (30%), sodium dodecyl sulfate (SDS; 10%) and Tris-Cl (0.25M, pH 6.8). Protein extracts were separated according to molecular weight by the polyacrylamide gel electrophoresis (PAGE) method and then transferred to solid-phase support (PVDF membrane). The PVDF membrane was placed in a blocking solution containing 5% skim milk for 2 h, followed by incubation with primary and secondary antibodies, and the bands were detected and imaged in the ChemiDocTMXRS+ imaging system.
Figure 1 (A) Expression levels of Cdc20 protein in different cell lines. (B) Cdc20 levels were measured by Western blot 12 h after the addition of compounds. The reproducibility of the results was confirmed by at least two separate experiments. (a) Quantitative results of (A) compared to Hela. (b) Quantitative results of (B) compared to control. Statistical significance was calculated by two-tailed unpaired t test.
Figure 4 (A) Protein levels of cyclin B1 and securin were measured by Western blot. (B) Protein levels of Bim were measured by Western blot. (C) Protein levels of cleaved PARP were measured by Western blot. […] (a–d) Quantitative results of (A–C) compared to control. Statistical significance was calculated by two-tailed unpaired t test (* p < 0.05, ** p < 0.01, *** p < 0.001).

Hela cells [8] = assay: Annexin V-FITC/PI double-staining cell-apoptosis assay; format: cell-based, human; conditions: 24 h, in words
Experimental: Then, the preset drug concentration was added and incubated for 24 h. Cells were collected by centrifugation, resuspended in buffer, and then stained by adding Annexin V-FITC (5 μL) and PI Staining Solution (5 μL) and incubated at room temperature for 10 min. The samples were detected by flow cytometry within 1 h after staining. Flow cytometer (Beckman Coulter Cytofex) was used for subsequent detection, and the data were processed with FlowJo software.

Hela cells [9] = assay: Cell-cycle assay (flow cytometry, propidium iodide); format: cell-based, human; conditions: 24 h; for number of cells in the mitotic G2/M phase: in words
Experimental: Then, the preset drug concentration was added and incubated for 24 h. Cells were collected by centrifugation and were fixed overnight with pre-cooled ethanol (70%) and washed twice with buffer, propidium-iodide staining solution was added (0.5 mL/well), and they were incubated at 37 °C for 30 min in the dark for flow detection.

tubulin [10] = assay: Tubulin polymerization assay in vitro; format: biochemical
Experimental: We used an HTS-Tubulin Polymerization Assay Kit (BK004P, Cytoskeleton, USA) to assess the inhibitory effect of compounds on tubulin polymerization. Tubulin solution was prepared, and the compound solution and paclitaxel solution were tested according to the instructions of the kit. General tubulin buffer, paclitaxel solution, and 10× test compound solution were added to a 96-well plate (10 μL/well) and incubated at 37 °C for two minutes. A total of 100 μL of tubulin solution was pipetted into the corresponding wells. The plate was immediately placed on a multi-function microplate reader at 37 °C, and the continuous kinetic values were recorded.
Figure 7 The effect of compound 20 and compound 27 on in vitro tubulin polymerization was tested. Polymerization of purified tubulin was performed in a cell-free assay. Tubulin protein was incubated at 37 °C in a reaction buffer exposed to vehicle control or test compounds at the indicated concentrations. Absorbance at 340 nm was monitored at 37 °C every 30 s for 1 h.

four cancer-cell lines = assay: In vitro antiproliferative assay (CCK-8), cell line not given; conditions: Homo sapiens, read-out: IC50 (antiproliferative activity)
Hepg2 [11] = system: Hepg2; set-up: method as in PMID 32290657; conditions: previous studies; read-out: IC50 ± SD Hepg2; cited from earlier work
Mcf-7 [12] = system: Mcf-7; set-up: method as in PMID 32290657; conditions: previous studies; read-out: IC50 ± SD Mcf-7; cited from earlier work

Row | SMILES | IC50 (Hela [1]) | IC50 (Hela [2]) | IC50 (Mda-mb-231) | IC50 (Hepg2 [4]) | IC50 (Mcf-7 [5]) | Kd [6] | Kd (1/S) [6] | expression of Bim [7] | expression of cleaved PARP [7] | level of cyclin B1 protein [7] | level of securin protein [7] | Cdc20 protein level [7] | apoptotic rates (Hela cells [8]) | number of cells in the mitotic G2/M phase (Hela cells [9]) | further results
1 | Nc1nc(F)nc2c1ncn2[C@H](NC(=O)OCCN1CCOCC1)C(Cl)(Cl)Cl [Compound 9f, reference compound] | 0.1 ± 0.02 µM | 0.3 ± 0.2 µM | 1.4 ± 0.22 µM | 0.41 ± 0.36 µM | 0.61 ± 0.12 µM | – | – | – | – | – | – | – | – | – | effect on Cdc20 and microtubules (tubulin [3]): dual inhibitory effects of Cdc20 and microtubules
2 | Nc1c(Cl)nc(NC(NC(=O)NCCc2ccccc2)C(Cl)(Cl)Cl)nc1Cl (stereo not drawn) [Compound 20, 1-(1-((5-amino-4,6-dichloropyrimidin-2-yl)amino)-2,2,2-trichloroethyl)-3-phenethylurea] | 24.7 ± 2.01 µM | – | 30.4 ± 13 µM | 31.2 ± 8.37 µM | 35 ± 3.06 µM | 79.6 µM | 5.78 × 10^−3 1/S | significantly increase | significantly increase | significantly increased | significantly increased | no effect | increased in a concentration-dependent way | significant increase | binding affinity to Cdc20 relative to Apcin ([6]; from Kd values): about three times; P4 gate (cells in the G2/M phase) (Hela cells [9]; 40μm): 41.09%; effect on microtubule polymerization (tubulin [10]; cell-free, purified tubulin, 37 °C, absorbance 340 nm, 30 μM): slightly promoted microtubule polymerization; IC50 (four cancer-cell lines): < 40 µM
3 | Nc1nc(F)nc2c1ncn2C(NC(=O)NCCN1CCOCC1)C(Cl)(Cl)Cl (stereo not drawn) [Compound 27, 1-(1-(6-amino-2-fluoro-9H-purin-9-yl)-2,2,2-trichloroethyl)-3-(2-morpholinoethyl)urea] | 0.06 ± 0.02 µM | – | 0.32 ± 0.04 µM | 0.24 ± 0.11 µM | 0.27 ± 0.06 µM | – | – | significantly increase | significantly increase | significantly increased | significantly increased | no effect | increased in a concentration-dependent way | slightly reduced | effect on microtubule polymerization (tubulin [10]; cell-free, purified tubulin, 37 °C, absorbance 340 nm, 3 μM and 30 μM): promoted microtubule polymerization in a concentration-dependent manner
4 | CC(=O)O[C@H]1C(=O)[C@@]2(C)[C@H]([C@H](OC(=O)c3ccccc3)[C@]3(O)C[C@H](OC(=O)[C@H](O)[C@@H](NC(=O)c4ccccc4)c4ccccc4)C(C)=C1C3(C)C)[C@]1(OC(C)=O)CO[C@@H]1C[C@@H]2O [paclitaxel, reference compound] | – | – | – | – | – | – | – | – | – | – | – | – | – | – | effect on microtubule polymerization (tubulin [10]; reference compound, concentration not given): promote microtubule polymerization
5 | Cc1ncc([N+](=O)[O-])n1CCOC(=O)N[C@H](Nc1c(Cl)nc(N)nc1Cl)C(Cl)(Cl)Cl [Compound 7d] | – | 63.2 ± 0.9 µM | – | – | – | – | – | – | – | – | – | – | – | – | IC50 (Hepg2 [11]): 25.6 ± 6.1 µM; IC50 (Mcf-7 [12]): 160 ± 5 µM
6 | Cc1ncc([N+](=O)[O-])n1CCOC(=O)N[C@@H](Nc1ncccn1)C(Cl)(Cl)Cl (racemic) [Apcin] | 182 ± 12.5 µM | – | > 100 µM | > 100 µM | > 100 µM | 236 µM | 2.33 × 10^−2 1/S | – | – | – | – | – | increased in a concentration-dependent way | significant increase | P4 gate (cells in the G2/M phase) (Hela cells [9]; 150μm): 34.87%
